In patent US10457677B2 (priority 2015, dated 2019):

Tests used:
[1] = test system: phosphorylation of CHK2 (phospho-Thr68) in HCT116 cells; experiment: Cellular pCHK2 assay: bleomycin-induced phosphorylation of CHK2 (phospho-Thr68), immunofluorescence high-content analysis; format: cell-based, human; details: Homo sapiens, HCT-116, 4 h, read-out: IC50 (pCHK2)
Text: For the identification of substances which inhibit the phosphorylation of the protein kinase CHK2 at the amino acid threonine 68, an immunofluorescence-based “high content” analysis assay was used in HCT116 cells.
In vitro cell-based immunofluorescence assay for the identification of inhibitors of bleomycin-induced phosphorylation of CHK2 (phospho-Thr68) in the human colon carcinoma cell line HCT116:
HCT116 cells are sown out in a defined cell density in 384-well plates in culture medium (DMEM high glucose, 2 mM GlutaMax, 1 mM Na pyruvate, 10% FCS) and incubated overnight at 37° C. and 10% of CO2. On the following day, the test substances are added in a defined concentration range (1 nM to 30 μM) in combination with 10 μM bleomycin, where the concentration of the solvent DMSO is kept constant at 0.5%. […] Parallel staining of DNA with propidium iodide enables determination of the cell count. The pCHK2 signal is detected using a high-content imager (Molecular Devices IMX Ultra) and automatic image analysis using the MetaXpress software belonging to the instrument. The number of cell nuclei which have a pCHK2 signal above a defined background is determined.

[2] = molecular target: PI3K (p120γ) (human) (Homo sapiens (Human), UniProt P48736); experiment: PI3K (p120γ) (human), non-radioactive assay (HTRF); format: biochemical; details: as printed:
Experimental: PI3K (p120γ) (Human), Non-radioactive Assay
PI3K (p120γ) (human) was incubated in an assay buffer comprising 10 μM phosphati-dylinositol 4,5-bisphosphate and MgATP (concentration as necessary). The reaction was initiated by addition of MgATP solution. After an incubation time of 30 min at room temperature, the reaction was stopped by addition of a solution consisting of EDTA and biotinylated phosphatidylinositol 3,4,5-trisphosphate. Finally, the detection buffer, consisting of a europium-labelled anti-GST monoclonal antibody, a GST-labelled GRP1 PH domain and streptavidin allophycocyanin, was added. The plate was read out via homogeneous time-resolved fluorescence (HTRF) and the corresponding signals were evaluated via the formula HTRF=10000×(Em665nm/Em620nm). • MgATP=magnesium 5′-O—[hydroxy({[(hydroxyphosphinato)oxy]phosphinato}oxy)phosphoryl]adenosine • MgCl2=magnesium dichloride • EGTA=ethylene glycol bis(aminoethyl ether) N,N,N′,N′-tetraacetic acid • Tween 20=polysorbate 20 Medicament/pharmaceutical Composition

[3] = molecular target: purified human recombinant ATM (ataxia telangiectasia mutated), full length (Homo sapiens (Human), UniProt Q13315); experiment: ATM kinase assay - determination of ATM inhibition (IC50 ATM), TR-FRET; format: biochemical; details: 10 μM ATP, substrate p53
Outline: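 Full-length enzyme, expressed in a mammalian cell line, pre-incubated 15 min with inhibitor in 25 mM HEPES pH 8.0, 10 mM Mg(CH3COO)2, 1 mM MnCl2, 0,1% BSA, 0,01% Brij 35, 5 mM DTT. Full-length cmyc-p53 (Sf21-expressed) and ATP then added, 30-35 min at 22° C. EDTA stop; p53 S15 phosphorylation read by TR-FRET antibodies.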

[4] = molecular target: PI3K p110α/p85α (human) (Homo sapiens (Human), UniProt P42336); experiment: PI3K p110α/p85α (human), non-radioactive assay (HTRF); format: biochemical; details: as printed:
Experimental: PI3K p110α/p85α (Human), Non-radioactive Assay
(§1) PI3K p110α/p85α (human) was incubated in an assay buffer comprising 10 μM phosphati-dylinositol 4,5-bisphosphate and MgATP (concentration as necessary). The reaction was initiated by addition of MgATP solution. After incubation at room temperature for 40 minutes, the reaction was stopped by addition of a solution consisting of EDTA and biotinylated phosphatidylinositol 3,4,5-trisphosphate. Finally, the detection buffer, consisting of a europium-labelled anti-GST monoclonal antibody, a GST-labelled GRP1 PH domain and streptavidin allophycocyanin, was added. The plate was read out via homogeneous time-resolved fluorescence (HTRF) and the corresponding signals were evaluated via the formula HTRF=10000×(Em665nm/Em620nm).

[5] = molecular target: PI3K p110δ/p85α (human) (Homo sapiens (Human), UniProt O00329); experiment: PI3K p110δ/p85α (human), non-radioactive assay (HTRF); format: biochemical; details: as printed:
Experimental: PI3K p110δ/p85α (Human), Non-radioactive Assay
as §1, with “p110δ/p85α” for “p110α/p85α”, “After an” for “After”, “incubation time of 30 min” for “incubation”, “temperature,” for “temperature for 40 minutes,”

PI3K p110α/p85α (human), sequence (P42336 whole entry): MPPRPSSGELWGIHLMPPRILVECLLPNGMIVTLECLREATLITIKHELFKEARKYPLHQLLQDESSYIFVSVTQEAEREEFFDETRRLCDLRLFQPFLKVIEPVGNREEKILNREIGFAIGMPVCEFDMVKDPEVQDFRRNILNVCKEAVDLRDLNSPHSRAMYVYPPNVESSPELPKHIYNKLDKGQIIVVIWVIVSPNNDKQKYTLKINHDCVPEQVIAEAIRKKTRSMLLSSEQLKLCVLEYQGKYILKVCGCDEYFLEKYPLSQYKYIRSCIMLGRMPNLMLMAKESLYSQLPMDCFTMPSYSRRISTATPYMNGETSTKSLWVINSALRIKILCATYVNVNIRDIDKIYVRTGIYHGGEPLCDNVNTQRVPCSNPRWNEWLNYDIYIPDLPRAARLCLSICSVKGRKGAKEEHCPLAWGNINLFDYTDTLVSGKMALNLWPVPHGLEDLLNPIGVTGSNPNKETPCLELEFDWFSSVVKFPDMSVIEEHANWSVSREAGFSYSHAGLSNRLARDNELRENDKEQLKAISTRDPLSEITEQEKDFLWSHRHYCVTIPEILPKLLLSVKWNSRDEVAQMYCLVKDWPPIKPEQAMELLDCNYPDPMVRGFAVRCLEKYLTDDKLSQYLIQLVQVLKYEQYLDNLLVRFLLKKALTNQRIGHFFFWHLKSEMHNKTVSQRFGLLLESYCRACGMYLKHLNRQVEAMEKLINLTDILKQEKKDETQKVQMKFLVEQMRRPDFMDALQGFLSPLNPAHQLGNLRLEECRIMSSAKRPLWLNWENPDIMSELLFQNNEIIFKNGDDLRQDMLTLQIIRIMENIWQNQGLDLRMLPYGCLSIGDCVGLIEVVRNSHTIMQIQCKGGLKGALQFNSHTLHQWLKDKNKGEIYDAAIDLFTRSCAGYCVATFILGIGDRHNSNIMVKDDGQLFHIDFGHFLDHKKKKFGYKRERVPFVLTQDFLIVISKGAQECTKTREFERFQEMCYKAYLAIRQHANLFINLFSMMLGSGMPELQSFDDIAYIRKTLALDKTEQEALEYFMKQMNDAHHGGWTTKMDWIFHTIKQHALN
PI3K p110α/p85α (human), sequence (P27986 whole entry partner): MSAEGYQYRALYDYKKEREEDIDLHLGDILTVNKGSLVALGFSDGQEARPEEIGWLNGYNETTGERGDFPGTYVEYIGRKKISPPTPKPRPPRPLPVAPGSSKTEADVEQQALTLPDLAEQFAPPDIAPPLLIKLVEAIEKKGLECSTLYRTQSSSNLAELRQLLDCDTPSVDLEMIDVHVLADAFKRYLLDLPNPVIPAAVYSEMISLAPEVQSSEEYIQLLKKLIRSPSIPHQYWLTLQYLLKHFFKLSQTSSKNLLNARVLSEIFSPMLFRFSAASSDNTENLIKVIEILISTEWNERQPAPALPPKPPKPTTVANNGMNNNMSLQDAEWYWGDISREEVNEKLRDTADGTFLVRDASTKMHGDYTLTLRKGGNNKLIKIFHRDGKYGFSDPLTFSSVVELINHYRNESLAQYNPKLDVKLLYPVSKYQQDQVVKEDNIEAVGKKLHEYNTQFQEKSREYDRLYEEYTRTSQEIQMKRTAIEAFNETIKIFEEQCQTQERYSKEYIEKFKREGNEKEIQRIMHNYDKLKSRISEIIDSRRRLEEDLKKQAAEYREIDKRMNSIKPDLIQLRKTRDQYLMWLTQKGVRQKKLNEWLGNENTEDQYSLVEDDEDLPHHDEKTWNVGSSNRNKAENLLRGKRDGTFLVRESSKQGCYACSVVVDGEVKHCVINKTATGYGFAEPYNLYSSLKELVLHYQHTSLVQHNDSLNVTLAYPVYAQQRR
PI3K (p120γ) (human), sequence (P48736 whole entry): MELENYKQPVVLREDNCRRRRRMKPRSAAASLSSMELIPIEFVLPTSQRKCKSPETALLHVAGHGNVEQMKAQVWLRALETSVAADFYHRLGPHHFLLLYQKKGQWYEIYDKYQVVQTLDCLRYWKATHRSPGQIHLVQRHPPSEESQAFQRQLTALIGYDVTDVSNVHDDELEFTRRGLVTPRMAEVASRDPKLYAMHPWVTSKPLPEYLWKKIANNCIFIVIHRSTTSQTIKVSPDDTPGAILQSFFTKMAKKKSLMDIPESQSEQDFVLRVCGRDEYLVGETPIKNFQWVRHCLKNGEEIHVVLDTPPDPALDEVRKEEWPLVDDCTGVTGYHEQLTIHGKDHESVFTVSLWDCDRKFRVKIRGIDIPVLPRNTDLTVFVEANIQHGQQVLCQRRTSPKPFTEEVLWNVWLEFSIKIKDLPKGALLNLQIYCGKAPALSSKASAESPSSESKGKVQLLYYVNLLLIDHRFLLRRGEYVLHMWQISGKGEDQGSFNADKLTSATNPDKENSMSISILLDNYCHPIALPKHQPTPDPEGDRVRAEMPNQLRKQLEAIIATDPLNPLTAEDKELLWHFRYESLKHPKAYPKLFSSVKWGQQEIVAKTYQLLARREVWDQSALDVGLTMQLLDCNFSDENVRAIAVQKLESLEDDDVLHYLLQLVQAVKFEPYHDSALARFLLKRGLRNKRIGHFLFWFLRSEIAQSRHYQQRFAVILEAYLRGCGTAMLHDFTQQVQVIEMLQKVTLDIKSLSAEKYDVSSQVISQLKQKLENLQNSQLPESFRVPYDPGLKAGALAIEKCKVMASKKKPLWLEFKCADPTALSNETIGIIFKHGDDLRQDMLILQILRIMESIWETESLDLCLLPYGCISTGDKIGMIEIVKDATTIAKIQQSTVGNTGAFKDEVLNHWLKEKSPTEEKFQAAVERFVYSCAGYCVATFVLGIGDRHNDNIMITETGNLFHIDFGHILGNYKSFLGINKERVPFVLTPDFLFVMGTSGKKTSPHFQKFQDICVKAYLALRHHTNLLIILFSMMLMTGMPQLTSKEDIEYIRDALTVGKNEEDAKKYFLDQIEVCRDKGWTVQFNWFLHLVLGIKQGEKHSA
PI3K p110δ/p85α (human), sequence (O00329 whole entry): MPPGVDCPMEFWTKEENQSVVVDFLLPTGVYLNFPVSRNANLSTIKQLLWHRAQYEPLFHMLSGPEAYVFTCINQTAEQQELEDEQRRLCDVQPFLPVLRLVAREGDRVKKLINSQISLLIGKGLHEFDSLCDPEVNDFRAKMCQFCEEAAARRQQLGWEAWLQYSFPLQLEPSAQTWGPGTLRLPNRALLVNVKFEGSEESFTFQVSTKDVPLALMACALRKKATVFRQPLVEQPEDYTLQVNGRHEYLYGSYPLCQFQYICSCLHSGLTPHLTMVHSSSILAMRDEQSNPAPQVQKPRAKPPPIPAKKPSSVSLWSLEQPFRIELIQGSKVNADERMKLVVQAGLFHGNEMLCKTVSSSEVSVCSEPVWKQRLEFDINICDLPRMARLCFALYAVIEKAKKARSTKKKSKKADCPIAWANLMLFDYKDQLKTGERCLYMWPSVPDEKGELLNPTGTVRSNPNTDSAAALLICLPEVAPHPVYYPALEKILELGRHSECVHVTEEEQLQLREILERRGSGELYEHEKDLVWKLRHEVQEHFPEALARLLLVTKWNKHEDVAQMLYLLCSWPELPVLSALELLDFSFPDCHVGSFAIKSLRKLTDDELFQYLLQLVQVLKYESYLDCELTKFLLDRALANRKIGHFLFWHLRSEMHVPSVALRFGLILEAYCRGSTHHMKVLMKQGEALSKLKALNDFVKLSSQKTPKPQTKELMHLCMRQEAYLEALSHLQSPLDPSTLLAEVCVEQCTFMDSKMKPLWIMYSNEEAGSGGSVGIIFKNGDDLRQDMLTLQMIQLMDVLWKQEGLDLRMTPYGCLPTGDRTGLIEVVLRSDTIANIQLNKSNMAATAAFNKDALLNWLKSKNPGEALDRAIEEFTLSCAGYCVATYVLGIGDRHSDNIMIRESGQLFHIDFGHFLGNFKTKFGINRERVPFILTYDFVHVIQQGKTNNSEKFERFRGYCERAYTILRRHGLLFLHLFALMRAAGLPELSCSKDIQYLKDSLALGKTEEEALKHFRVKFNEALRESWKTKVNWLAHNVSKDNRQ
PI3K p110δ/p85α (human), sequence (P27986 whole entry partner): as the sequence (P27986 whole entry partner) above

Row | SMILES | IC50 [1] | ratio IC50 (ATM) vs PI3Kgamma, selectivity with respect to PI3Kgamma [2] | IC50 [3] | ratio IC50 (ATM) vs PI3Kalpha, selectivity with respect to PI3Kalpha [4] | ratio IC50 (ATM) vs PI3Kdelta, selectivity with respect to PI3Kdelta [5]
1 | COc1cc2ncc3c(c2cc1-c1c[nH]nc1C)n(-c1ncc(F)cc1F)c(=O)n3C [compound 117, 1-(3,5-Difluoropyridin-2-yl)-7-methoxy-3-methyl-8-(3-methyl-1H-pyrazol-4-yl)-1,3-dihydroimidazo[4,5-c]-quinolin-2-one] | 200 to 1000 nM | at least 2000 times | < 10 nM | at least 2000 times | at least 2000 times
2 | COc1cc2ncc3c(c2cc1-c1cnn(C)c1)n(-c1ncc(OC(F)F)cc1F)c(=O)n3C [compound 114, 1-(5-Difluoromethoxy-3-fluoropyridin-2-yl)-7-methoxy-3-methyl-8-(1-methyl-1H-pyrazol-4-yl)-1,3-dihydroimidazo[4,5-c]-quinolin-2-one] | < 200 nM | at least 2000 times | < 1 nM | at least 2000 times | at least 2000 times
3 | COCCOc1cnc(-n2c(=O)n(C)c3cnc4cc(OC)c(-c5cnn(C)c5)cc4c32)c(F)c1 [compound 66, 1-[3-Fluoro-5-(2-methoxy-ethoxy)-2-pyridyl]-7-methoxy-3-methyl-8-(1-methylpyrazol-4-yl)imidazo-[4,5-c]quinolin-2-one] | < 200 nM | at least 2000 times | < 1 nM | at least 2000 times | at least 2000 times
4 | COc1cc2ncc3c(c2cc1-c1cnn(C)c1)n(-c1ncc(OCCO)cc1F)c(=O)n3C [compound 67, 1-[3-Fluoro-5-(2-hydroxy-ethoxy)-2-pyridyl]-7-methoxy-3-methyl-8-(1-methylpyrazol-4-yl)imidazo-[4,5-c]quinolin-2-one] | < 200 nM | at least 2000 times | < 1000 nM | at least 2000 times | at least 2000 times
5 | COc1cc2ncc3c(c2cc1-c1cnn(C)c1)n(-c1ncc(N2CCNCC2)cc1F)c(=O)n3C [compound 123, 1-(3-Fluoro-5-piperazin-1-yl-pyridin-2-yl)-7-methoxy-3-methyl-8-(1-methyl-1H-pyrazol-4-yl)-1,3-dihydro-imidazo[4,5-c]quinolin-2-one] | 200 to 1000 nM | at least 2000 times | < 10 nM | at least 2000 times | at least 2000 times
6 | COc1cc2ncc3c(c2cc1-c1cnn(C)c1)n(-c1cc2[nH]ccc2cn1)c(=O)n3C [compound 120, 7-Methoxy-3-methyl-8-(1-methyl-1H-pyrazol-4-yl)-1-(1H-pyrrolo[3,2-c]pyridin-6-yl)-1,3-dihydroimidazo-[4,5-c]quinolin-2-one] | 200 to 1000 nM | at least 2000 times | < 1 nM | at least 2000 times | at least 2000 times
